According to ChEMBL document CHEMBL1138741, “Virulence regulation and quorum sensing in staphylococcal infections: competitive AgrC antagonists as quorum sensing inhibitors” (J Med Chem, 2004):
Several values for one entry are separate records, joined by “and”; a condition that tells them apart may be missing. Identical values can stand only once. Where a SMILES comes first, the peptide text is derived from it.

Tests used:
[1] = molecular target: T1, Receptor-histidine kinase AgrC (Staphylococcus aureus, UniProt O07911); assay: Concentration required to inhibit quorum sensor of Staphylococcus aureus
T1 sequence (O07911 whole entry): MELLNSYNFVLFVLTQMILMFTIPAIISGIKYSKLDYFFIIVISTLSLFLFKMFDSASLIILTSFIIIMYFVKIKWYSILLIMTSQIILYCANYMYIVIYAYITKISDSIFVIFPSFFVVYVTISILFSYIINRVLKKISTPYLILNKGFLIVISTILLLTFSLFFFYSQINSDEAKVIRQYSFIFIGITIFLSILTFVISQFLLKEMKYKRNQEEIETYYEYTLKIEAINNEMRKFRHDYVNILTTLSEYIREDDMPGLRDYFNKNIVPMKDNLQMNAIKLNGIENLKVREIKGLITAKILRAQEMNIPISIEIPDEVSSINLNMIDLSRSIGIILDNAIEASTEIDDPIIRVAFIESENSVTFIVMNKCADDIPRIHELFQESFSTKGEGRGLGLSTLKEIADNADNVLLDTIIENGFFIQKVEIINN

[2] = molecular target: T1, Receptor-histidine kinase AgrC; assay: Effective concentration to antagonise accessory gene regulator C3 of Staphylococcus aureus; assay type: functional
[3] = molecular target: T1, Receptor-histidine kinase AgrC; assay: Concentration required to antagonise accessory gene regulator C2 of Staphylococcus aureus; assay type: functional
[4] = molecular target: T1, Receptor-histidine kinase AgrC; assay: Concentration required to antagonise accessory gene regulator C4 of Staphylococcus aureus; assay type: functional
[5] = molecular target: T1, Receptor-histidine kinase AgrC; assay: Antagonistic concentration for accessory gene regulator C1 of Staphylococcus aureus; assay type: functional
[6] = molecular target: T1, Receptor-histidine kinase AgrC; assay: Concentration required to antagonise accessory gene regulator C3 of Staphylococcus aureus; assay type: functional
[7] = molecular target: T1, Receptor-histidine kinase AgrC; assay: Effective concentration to antagonise accessory gene regulator C4 of Staphylococcus aureus; assay type: functional
[8] = molecular target: T1, Receptor-histidine kinase AgrC; assay: Effective concentration to antagonise accessory gene regulator C2 of Staphylococcus aureus; assay type: functional
[9] = molecular target: T1, Receptor-histidine kinase AgrC; assay: Effective concentration to antagonise accessory gene regulator C1 of Staphylococcus aureus; range = 9-11 uM; assay type: functional

| Molecule | IC50 [1] | IC50 [3] [nM] | IC50 [4] [nM] | IC50 [5] [nM] | IC50 [6] [nM] | other results |
| --- | --- | --- | --- | --- | --- | --- |
| CC[C@H](C)[C@@H]1NC(=O)[C@H](Cc2ccccc2)NC(=O)[C@H](CC(=O)O)NC(=O)[C@@H](NC(C)=O)CSC(=O)[C@H](CCSC)NC1=O (HELM PEPTIDE1{[ac].C.D.F.I.M}$PEPTIDE1,PEPTIDE1,2:R3-6:R2$$$V2.0) | 8000 nM |  |  |  |  |  |
| CC[C@H](C)[C@@H]1NC(=O)[C@H](Cc2ccccc2)NC(=O)[C@H](C)NC(=O)[C@@H](NC(=O)[C@@H](NC(=O)[C@H](CO)NC(=O)[C@@H](N)Cc2ccc(O)cc2)[C@@H](C)O)CSC(=O)[C@@H](CCSC)NC1=O | 256 nM and 30 nM |  |  |  |  |  |
| H-INCDFLL-OH |  | 6 | 150 | 70 |  | EC50 [2]: 26 nM |
| CC[C@H](C)[C@@H]1NC(=O)[C@H](Cc2ccccc2)NC(=O)[C@H](Cc2ccc(O)cc2)NC(=O)[C@@H](NC(=O)[C@@H](NC(=O)[C@H](CO)NC(=O)[C@@H](N)Cc2ccc(O)cc2)[C@@H](C)O)CSC(=O)[C@H](CCSC)NC1=O [YSTCYFIM] (HELM PEPTIDE1{Y.S.T.C.Y.F.I.M}$PEPTIDE1,PEPTIDE1,4:R3-8:R2$$$V2.0) |  | 4 |  | 7000 | 1 | EC50 [7]: 13 nM |
| CC(C)C[C@@H]1NC(=O)[C@H](CO)NC(=O)[C@H](CO)NC(=O)[C@@H](NC(=O)[C@H](C)NC(=O)[C@H](CC(N)=O)NC(=O)[C@@H](NC(=O)CN)C(C)C)CSC(=O)[C@H](Cc2ccccc2)NC1=O [GVNACSSLF] (HELM PEPTIDE1{G.V.N.A.C.S.S.L.F}$PEPTIDE1,PEPTIDE1,5:R3-9:R2$$$V2.0) |  |  | 86 |  | 1 | EC50 [8]: 3.6 nM |
| CC[C@H](C)[C@@H]1NC(=O)[C@H](Cc2ccccc2)NC(=O)[C@H](CC(=O)O)NC(=O)[C@@H](NC(=O)[C@@H](NC(=O)[C@H](CO)NC(=O)[C@@H](N)Cc2ccc(O)cc2)[C@@H](C)O)CSC(=O)[C@H](CCSC)NC1=O (HELM PEPTIDE1{Y.S.T.C.D.F.I.M}$PEPTIDE1,PEPTIDE1,4:R3-8:R2$$$V2.0) |  |  |  |  |  | EC50 [9]: 11000 nM |
